One block for each compound: values may come before it.
Key:
[1] = system: HUVEC (Human umbilical vein endothelial cells); assay: Cell binding assay by fluorescence microscopy, HUVEC; format: cell-based
Experimental: (§1) Cell binding assays were performed using HUVEC (Human umbilical vein endothelial cells) and human rhabdomyosarcoma A673 tumor cells. HUVEC or A673 (50,000 cells) (ATCC, Manassas, Va.) were seeded unto 8-well Lab-Tek chamberslides (Nalge-Nunc International, Naperville, Ill.) and left to adhere overnight at 37° C. in a humidified atmosphere containing 5% CO2. The following day, the medium was changed to fresh complete medium containing compound E-6 or free dye (20 nM), incubated for 30 minutes at 37° C., washed 2×with PBS and fixed with paraformaldehyde for 30 minutes at 4° C. Competition studies were performed by pre-incubating the cells for 5 minutes with parent compound (200 nM) before addition of E-6. The cells on the microscopy slides were then allowed to air dry protected from light. The slides were mounted with ProLong® Gold antifade reagent with DAPI (Molecular Probes, Eugene, Oreg.) and cured overnight at room temperature protected from light. Merged images of the nuclear staining (DAPI) and fluorescent signals were collected using fluorescence microscopy (Zeiss, Thornwood, N.Y.)

A673 tumors [2] = assay: In vivo FMT imaging and quantification of signal in A673 tumor-bearing mice; design: species or system NU/NU mice
Experimental: Female NU/NU mice 6-8 weeks old (Charles River Laboratory, Wilmington, Mass.) were injected subcutaneously (s.c.) with A673 cells (5×10^6) in the first mammary fat pads. Once tumors reached the desired volume (measured with calipers using the formula volume mm^3=(length×width^2)/2), mice were injected i.v. with E-6 ([…]) in the absence or presence of excess, competing parent compound (100 nmoles). Control mice received free dye. For in vivo imaging, mice were anesthetized by gas anesthesia (isoflurane/oxygen mixture), placed in the VisEn's FMT2500 system imaging chamber one at a time, and imaged.
The fluorescent signal was quantified by drawing a three-dimensional ROI encompassing each tumor.

αIIbβ3 = biological target: T1, αIIbβ3 (Homo sapiens, UniProt P05106+P08514); assay: Inhibition of cell attachment to vitronectin, HEK293 cells transfected with αIIbβ3; format: cell-based; settings: for IC50: HEK293 cells stably transfected with αIIbβ3
T1 construct: expressed in transfected cells; host or cells: HEK293
Experimental: (§2) In this experiment, human embryonic kidney (HEK293) cells stably transfected with ανβ3 (HEK293-ανβ3 cells) were released with trypsin-EDTA and washed four times with serum-free MEM. […] Non-attached cells were gently washed away. Similar experiments were carried out with HEK293 cells stably transfected with ανβ5, α11bβ3, or α5β1. The attached cells were quantified by colorimetric detection of hexosaminidase enzymatic activity in a Vmax plate reader (Molecular Devices, Menlo Park, Calif.). The number of attached cells was quantified using a standard curve for each cell line assayed and expressed as a mean value of triplicate samples.

ανβ3 [3] = biological target: T2, ανβ3 (Homo sapiens, UniProt P05106+P06756); assay: Confocal microscopy cell binding assay on HEK293-ανβ3 cells; format: cell-based
T2 construct: expressed in transfected cells; host or cells: HEK293
Experimental: Cell binding assays using HEK293 cells stably expressing human ανβ3 were performed.
HEK293 cells stably transfected with ανβ3 (HEK293-ανβ3 cells) were plated onto poly-L-lysine coated Lab-Tek II chambered coverglass (Nuns, Rochester, N.Y.) the day before the assay. Cells were first incubated with DAPI (10 μg/ml) for 3 hours, followed by CellMask (Invitrogen, Carlsbad, Calif.) staining for 5 minutes. Cells were then washed 2× with PBS and incubated with E-6 (200 nM in PBS containing 5% serum) at 4° C. or 37° C. for 30 minutes. For the competition study, cells were incubated with parent compound (200 μM) for 1 hour before E-6 incubation. Confocal microscopy was performed on a Leica SP5 confocal system (Leica, Wetzlar, Germany).

ανβ5 = biological target: T3, ανβ5 (Homo sapiens, UniProt P06756+P18084); assay: Inhibition of cell attachment to vitronectin, HEK293 cells transfected with ανβ5; format: cell-based; settings: for IC50: HEK293 cells stably transfected with ανβ5, read-out: IC50 (nM), inhibition of cell attachment to vitronectin, αvβ5
T3 construct: expressed in transfected cells; host or cells: HEK293
Experimental: as §2

[4] = system: human rhabdomyosarcoma A673 tumor cells; assay: Cell binding assay by fluorescence microscopy, A673 tumor cells; format: cell-based
Experimental: as §1

ανβ3 [5] = biological target: T2, ανβ3; assay: Inhibition of cell attachment to vitronectin, HEK293-ανβ3 cells; format: cell-based; settings: for IC50: HEK293-ανβ3 cells, vitronectin-coated wells, 2 hours at 37° C., read-out: IC50 (nM), inhibition of cell attachment to vitronectin, αvβ3
Experimental: as §2

α5β1 = biological target: T4, α5β1 (Homo sapiens, UniProt P05556+P08648); assay: Inhibition of cell attachment to vitronectin, HEK293 cells transfected with α5β1; format: cell-based; settings: for IC50: HEK293 cells stably transfected with α5β1
T4 construct: expressed in transfected cells; host or cells: HEK293
Experimental: In this experiment, human embryonic kidney (HEK293) cells stably transfected with ανβ3 (HEK293-ανβ3 cells) were released with trypsin-EDTA and washed four times with serum-free MEM. Cells (25,000 cells/well) were added to microtiter wells coated with vitronectin and allowed to attach for 2 hours at 37° C. in a humidified incubator in the absence or presence of increasing concentrations of compound E-6 or unlabelled parent compound (as an inhibitor of E-6). Non-attached cells were gently washed away. Similar experiments were carried out with HEK293 cells stably transfected with ανβ5, α11bβ3, or α5β1. The attached cells were quantified by colorimetric detection of hexosaminidase enzymatic activity in a Vmax plate reader (Molecular Devices, Menlo Park, Calif.). The number of attached cells was quantified using a standard curve for each cell line assayed and expressed as a mean value of triplicate samples.

4T-1 tumors = assay: In vivo imaging of 4T-1 tumors; design: species or system NU/NU mice; settings: 4 nmoles i.v., 24 hours post-injection
Experimental: In this experiment, NU/NU mice 6-8 weeks old (Charles River Laboratory, Wilmington, Mass.) were injected subcutaneously (s.c.) with 2×10^6 4T-1 cells bilaterally in each mammary fat pad. When tumors reached an approximate size of 3×3 mm (around 7 days after cell injection), mice were injected intravenously (i.v.) with 4 nmoles of each integrin agent (5 mice/probe+2 mice/no probe as control) in 100 μL volume via tail vein. Imaging was conducted 24 hours post-injection using a Fluorescence Molecular Tomography system (VisEn Medical, Bedford, Mass.).

A673 tumors [6] = assay: Effect of Avastin treatment on integrin and cathepsin B signals in A673 tumor-bearing mice; format: in vivo
Experimental: A673 tumor-bearing mice were randomized once their tumors reached the desired volume and injected i.v. with either E-6 (2 nmoles) or free dye (2 nmoles). For competition studies, mice were injected with the parent compound (100 nmoles) followed 5 minutes later by compound E-6 ([…]). For therapy studies, mice were treated with either 2 mg/kg Avastin (bevacizumab, Genentech, CA) or vehicle (PBS) intraperitoneally (i.p.) 2× week, and injected 7 days after beginning the treatment with 2 nmoles each of compound E-6 and ProSense (ProSense750, VisEn Medical, Bedford, Mass.) in a final volume of 200 μl PBS. ProSense is a protease-activatable fluorescence agent comprising fluorochromes linked to a peptide scaffold. Proteolytic cleavage of the scaffold by cathepsin B activity (and to a lesser extent cathepsins K, L, and S) releases the fluorochromes and results in extensive fluorescence (via dequenching). Imaging was performed 24 hours after administration of the agents using the FMT2500. Differential localization of fluorescent signal with compound E-6 and ProSense can be seen in the same animal. The wavelength of the laser was selected to 680 nm or 750 nm, corresponding to the absorption spectra of the fluorescent agents administered to the animal, enabling simultaneous imaging and quantification of 2 spectrally distinct agents.

ανβ3 [7] = biological target: T2, ανβ3; assay: Equilibrium binding and dissociation measurements by flow cytometry on HEK293-ανβ3 cells
Experimental: The amount of probe bound to integrins on HEK293-ανβ3 cells was determined by flow cytometry (FACSCalibur, BD Biosciences, CA). Data was analyzed using FlowJo software and Kd values were calculated using SigmaPLot 10 software. For koff determination, HEK293-ανβ3 cells (1×10^6) were incubated with 100 nM of E-6 at 4° C. for 30 minutes and labeled cells were than transferred into PBS containing 10 mM of parent compound. The amount of probe bound to the integrins on HEK293-ανβ3 cells was determined by flow cytometry (FACSCalibur, BD Biosciences, CA) before mixing with unlabeled compound, and 1, 1.5, 2.5, 3.5, 4.5, 5.5, and 24 hours after mixing. Data was analyzed using FlowJo software and koff and t1/2 values calculated using SigmaPLot 10 software.

[8] = Plasma pharmacokinetics in mice; format: in vivo, BALB/c mice; settings: 2 nmoles i.v. bolus, two compartmental model
Excerpt: Twenty-four female retired breeder BALB/c mice (Charles River Laboratories, Wilmington, Mass.) received a bolus intravenous (i.v.) injection of compound E-6 (2 nmoles in PBS). Terminal blood samples were collected by cardiac puncture from each mouse (following carbon dioxide asphyxiation). Three mice were sampled for each time point. Plasma was collected by centrifugation, diluted 1:2 in DMSO and fluorescence read using a fluorescence plate reader (Molecular Devices, Sunnyvale, Calif.). Data was normalized to a standard curve (FIG. 5A) prepared with known concentrations of E-6.

[9] = Biodistribution in A673 tumor-bearing mice; format: in vivo, NU/NU mice; settings: 2 nmoles i.v., 24 hr
Experimental: For the biodistribution studies, female NU/NU mice 6-8 weeks old (Charles River Laboratory, Wilmington, Mass.) were injected subcutaneously (s.c.) with A673 cells (5×10^6) in the first mammary fat pads. Once tumors reached the desired volume (measured with calipers using the formula volume mm^3=(length×width^2)/2), mice were injected i.v. with compound E-6 (2 nmoles). Mice were sacrificed by carbon dioxide asphyxiation 24 hr later and certain tissues removed, rinsed with saline, blotted dry, and the imaged on VisEn's FMT2500 using the reflectance mode. Regions of interest (ROIs) were drawn around each organ using the FMT Software and the mean fluorescence (reported as counts/energy) determined for each organ and normalized to the mean fluorescence in tumors taken to be 100%.

[10] = pre-incubation 5 minutes with parent compound 200 nM
[11] = agent 20 nM, 30 minutes at 37° C.

IC50 (αIIbβ3): > 10000 nM | effect on binding of E-6 to HEK293-ανβ3 cells (competition) (ανβ3 [3]; parent compound 200 μM for 1 hour before E-6 incubation): prevented | IC50 (ανβ5): 1.3 ± 0.2 nM | IC50 (ανβ3 [5]): 0.82 ± 0.2 nM | IC50 (α5β1): > 10000 nM
Compound: Nc1ncnc2c1ncn2[C@@H]1O[C@H](OCP(=O)(O)O)C=C1F [Parent Compound, reference compound]
E-6 fluorescence intensity from HUVEC cells in the presence of a blocking dose [1, 10]: reduced | effect on total amount of E-6 signal in tumors (competition) (A673 tumors [2]; excess parent compound 100 nmoles, in words): effectively reduces | decrease of total E-6 fluorescence in tumors (A673 tumors [2]; parent compound 100 nmoles versus E-6 alone, p=0.011): 67% | E-6 fluorescence intensity from A673 cells in the presence of a blocking dose [4, 10]: reduced

Compound: CCN1/C(=C/C=C(/C=C/C2N(CC)c3ccc4c(S(=O)(=O)O)cc(S(=O)(=O)O)cc4c3C2(C)C)c2ccc(C(=O)NCCCCCC(=O)NCc3cc4c(nc3CCCCCC[C@@H](CC(=O)O)c3cnc(C)nc3)NCCC4)cn2)C(C)(C)c2c1ccc1c(S(=O)(=O)O)cc(S(=O)(=O)O)cc21 (some centres unmarked) [Compound E-7]
imaging of tumors in vivo (4T-1 tumors): imaged effectively

Compound: Avastin: Avastin (bevacizumab, Genentech, CA), anti-angiogenic treatment [reference compound]
effect of treatment on signal produced by compound E-6 in tumors (A673 tumors [6]; Avastin 2 mg/kg i.p. 2× week, agents injected after 7 days): decreased

IC50 (αIIbβ3): 39 nM | potency in binding to α11bβ3 compared to the parent compound (αIIbβ3; in words): retains higher potency | koff (ανβ3 [7]; 100 nM E-6, 4° C., HEK293-ανβ3 cells, chase with parent compound, read-out: dissociation rate constant koff): 0.000108 s⁻¹ | Kd (ανβ3 [7]; HEK293-ανβ3 cells, 4° C., 30 minutes, single binding site model, read-out: apparent equilibrium binding constant (Kd)): 4.2 ± 0.6 nM | binding isotherms in the absence or presence of Mn^2+ (ανβ3 [7]; in words): practically identical | plasma t(1)1/2 (free E-6 clearing from circulation) [8]: 6 min | plasma t(2)1/2 (clearance of bound E-6) [8]: 210 min | IC50 (ανβ5): 33 nM | loss of affinity to ανβ5 compared to the parent compound (ανβ5; ratio of Table 4 IC50 values): 25 fold | IC50 (ανβ3 [5]): 4.1 ± 0.3 nM | loss of affinity to ανβ3 compared to the parent compound (ανβ3 [5]; ratio of Table 4 IC50 values): 5 fold | IC50 (α5β1): > 2000 nM | specific binding to α5β1 (α5β1; in words): no specific binding
Compound: Cc1ncc([C@@H](CCCCCCc2nc3c(cc2CNC(=O)CCCN(C)S(=O)(=O)c2cccc4c5c(ccc24)N(CCCS(=O)(=O)O)/C(=C/C=C/C=C/C2=[N+](CCS(=O)(=O)[O-])c4ccc6c(S(=O)(=O)O)cc(S(=O)(=O)O)cc6c4C2(C)C)C5(C)C)CCCN3)CC(=O)O)cn1 [Compound E-6]
fluorescent signal of labeled HUVEC cells [1, 11]: Significant fluorescent signal | fluorescence in tumors (FMT imaging) (A673 tumors [2]; A673 tumor-bearing mice, agent i.v., in words): readily detected | internalization (receptor recycling, endocytosis) (ανβ3 [3]; 37° C. versus 4° C.): internalization at 37° C., but not at 4 °C | binding to HEK293-ανβ3 cells (confocal microscopy) (ανβ3 [3]; E-6 200 nM, 30 minutes, 4° C. or 37° C.): binds to the receptors on the surface of the cells | signal produced in tumors following Avastin treatment (A673 tumors [6]; A673 tumor-bearing mice, 2 nmoles agent, imaging 24 hours after): decreased by a greater amount than the signal produced by ProSense | tissue distribution of fluorescence [9]: highest concentration found in tumors, followed by the liver, small intestine and skin | imaging of tumors in vivo (4T-1 tumors): imaged effectively | fluorescent signal of labeled A673 cells [4, 11]: Significant fluorescent signal

— patent US9694089B2, “Integrin targeting agents and in-vivo and in-vitro imaging methods using the same” (Visen Medical, Inc., priority 2008, dated 2017)
